Measured values from patent US20090163481A1, “PPAR-DELTA LIGANDS AND METHODS OF THEIR USE” (priority 2007, published 2009).
pIC50: −log10 of the molar value.

Assays:
PPARδ = biological target: T1, PPARδ (Homo sapiens, UniProt Q03181); experiment: PPRE promoter/luciferase reporter (transactivation) assay in U2-OS cells; assay type: cell-based
T1 construct: expressed in transfected cells; host or cells: U2-OS (human bone cancer line)
T1 sequence (Q03181 1-441): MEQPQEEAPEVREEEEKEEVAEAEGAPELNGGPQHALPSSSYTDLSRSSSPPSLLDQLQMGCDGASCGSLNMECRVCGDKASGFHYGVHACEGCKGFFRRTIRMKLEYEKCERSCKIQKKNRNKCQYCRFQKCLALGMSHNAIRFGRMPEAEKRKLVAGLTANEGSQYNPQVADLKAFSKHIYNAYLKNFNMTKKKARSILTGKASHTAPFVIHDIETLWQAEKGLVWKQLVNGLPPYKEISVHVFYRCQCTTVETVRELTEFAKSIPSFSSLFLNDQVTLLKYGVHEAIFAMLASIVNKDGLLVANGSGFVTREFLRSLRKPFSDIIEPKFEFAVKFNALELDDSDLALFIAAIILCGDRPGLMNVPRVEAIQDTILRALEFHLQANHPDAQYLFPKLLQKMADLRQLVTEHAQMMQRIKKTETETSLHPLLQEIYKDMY
Protocol: General Testing Procedures. Each ligand was screened for PPARδ binding and transactivation activity through the use of two complementary reporter assays as described below. In both systems, transfection efficiency was standardized by co-transfection of a control Renilla luciferase. U2-OS (human bone cancer line) cells were used for both assays because this is the cell line of choice for screening PPAR ligands. At 18 h post-transfection, GW 501, with and without the ligands of the disclosure, was added to the cells and incubated for an additional 24 h. The cells were then harvested and luciferase activities profiled.
A promoter/luciferase reporter assay. This assay involves co-transfection of a PPARδ expression vector and a plasmid containing a luciferase gene under the control of PPARδ responsive DNA element (three copies of a consensus PPAR response element, PPRE). This assay was used to directly test ligand effects on PPARδ-responsive genes.
Referring to FIG. 3, U2-OS cells were transiently transfected with appropriate expression and reporter vectors. Ligands were added to the cell cultures 24 h post-transfection and incubated for an additional 16 h. Lipoprotein lipase (LPL; 2 μg/ml) was added with VLDL (5 μg/ml) to release PPARδ-active triglycerides. FIG. 3A: PPARδ LBD/Gal4/UAS-tk-luc competition assays with VLDL SR13904 (0-10 μM). The reporter activation (fold increase over blank) is presented relative to GW501516 at 7 nM (fold increase over blank=100). FIG. 3B: PPRE reporter assays using 0, 1, and 10 μM SR13904+VLDL. All assays were repeated in triplicate.

A549 = experiment: Alamar Blue proliferation assay, A549; assay type: cell-based; settings: Homo sapiens, 96 h; A549, 0-40 μM, 0.5% serum, 4 days; read-out: IC50 for growth inhibition
Protocol: (§1) The effect of SR13904 on the proliferation of these cell lines was determined by an Alamar Blue assay. Exponentially growing cells were treated with a range of SR13904 concentrations (0-40 μM; in 0.5% serum) over 4 days and proliferation curves were determined. The IC50 values for growth inhibition by SR13904 for each cell line were determined. […] In addition, colony formation assays with SR13904 were performed with both A549 and Huh7 cells.

Huh7 = experiment: Alamar Blue proliferation assay, Huh7; assay type: cell-based; settings: Homo sapiens, Huh-7, 96 h; Huh7, 0-40 μM, 0.5% serum, 4 days; read-out: IC50 for growth inhibition
Protocol: as §1

PC-3 cells [1] = experiment: Alamar Blue proliferation assay, PC-3; assay type: cell-based; settings: Homo sapiens, 96 h; PC-3, 0-40 μM, 0.5% serum, 4 days; read-out: IC50 for growth inhibition
Protocol: as §1

PC-3 cells [2] = experiment: Western analysis of cyclin D1 and CDK2 in post-confluent PC-3 cells; assay type: cell-based, human; settings: post-confluent PC-3, 48 h, SR 13904 10 μM, vehicle- and VLDL-treated cells
Protocol: Referring to FIG. 4, PC-3 cells were brought to confluence and cultured in serum-free OptiMem culture medium (Gibco) 2 h before treatment with a combination of VLDL (2 μg/ml+2 μg/ml LPL) and/or SR 13904 (10 μM) and incubated for an additional 48 h. Standard Western blotting was performed. Glyceraldehyde 3 phosphate dehydrogenase (GAPDH) was used a control for both blots.

A549 cells = experiment: Apoptosis, Cell Death Detection ELISA (DNA fragmentation) in A549 cells; assay type: cell-based, human; settings: A549, 0.5% serum, SR13904 15 μM, 40 h
Protocol: Referring now to FIG. 6, SR13904 treatment of cancer cells results in increased apoptosis. A549 cells (2×10^4 cells/well) were incubated in 0.5% media (96 well plates) SR13904 for 40 h. The relative degrees of apoptosis were determined using a Cell Death Detection ELISA (Roche). SR represents SR13904. ***p=<0.001 SR vs. SR+GW501.
SR13904 treatment results in increased apoptosis. Down-regulation of PPARδ, either by genetic knockout or by the treatment with 13-S—HODE (15-lipoxygenase-1 product), induces apoptosis in colorectal cancer cells. The effects of SR13904 (15 μM) GW501 (1 μM) on survival of A549 cells (0.5% serum) was determined. Relative degrees of apoptosis were measured using a DNA fragmentation assay.

MMP-9 = experiment: Gelatin zymogel analysis of MMP-9 activity in PC-3 cells; assay type: cell-based, human; settings: PC-3, 16 h; VLDL 2 μg/ml + LPL 2 μg/ml and/or 10 μM SR13904
Protocol: Zymogel studies were performed to determine whether PPARδ could regulate MMP-9 expression/activity in prostate cancer cells. Over-expression of MMP-9 is directly linked to metastatic prostate cancer, at least in part through mitogen/extracellular-signal-regulated kinase kinase 5/extracellular signal-regulated kinase-5 (MEK5/ERK5). An increase in MMP-9 activity in VLDL-treated PC-3 cells was observed (see FIG. 7), and this activation was attenuated by co-incubation with SR 13904.
Referring to FIG. 7, PC-3 cultures were treated with ligands (2 μg/ml VLDL+2 μg/ml LPL and/or 10 μM SR13904) for 16 h prior to harvesting of cells (for cell counting) and collection and concentration of conditioned media. Loading was based on equal cell numbers, corresponding closely to equal loading volumes.

- inhibition of PPARδ-mediated transactivation (PPARδ): appear to inhibit
- reporter expression via PPRE in combination with GW 501 (PPARδ; 1 μM ligand): significantly decreased
- reporter expression via PPRE in combination with GW 501 (PPARδ; 10 μM ligand): completely inhibited
- transcription activation of the PPRE reporter to GW501 (PPARδ; 1 and 10 μM ligand with GW501): completely eliminated
- VLDL-related activation of the PPAR promoter element (PPRE) construct (PPARδ; co-treatment with 1 μM): completely block
- pIC50 (A549): 5.00 to 5.10
- pIC50 (Huh7): 5.00 to 5.10
- pIC50 (PC-3 cells [1]): < 4.52
SMILES: Cc1cc(SCc2sc(-c3cccc4ccccc34)nc2C)ccc1OCC(=O)O [SR 13904]
- CDK2 protein levels (PC-3 cells [2]; VLDL 2 μg/ml + LPL 2 μg/ml): decreased
- cyclin D1 protein levels (PC-3 cells [2]): decreased
- apoptosis (DNA fragmentation) (A549 cells): significant apoptotic effect
- MMP-9 activity (MMP-9): attenuated
